Blank lines part the entries; values can stand above or below the molecule they belong to.
How the values were obtained:
IaCPR = test system: T1, IaCPR; test: reductase activity by absorbance, microplate reader; format: biochemical, Ilex asprella; conditions: electron acceptor for this constant, pH and temperature not printed in main text
T1 construct: full ORF 2,133 bp, 710 aa; pET32a (vector fusion tag), E. coli Transetta (DE3), Ni-NTA

IaAO4 = target: T2, IaAO4 (Ilex asprella, UniProt A0A976SHZ5); test: yeast metabolite analysis by GC-MS; format: cell-based; conditions: S. cerevisiae WAT11tfAX co-expressing IaAO1
T2 construct: 513 aa ORF (1,539 bp); pESC-URA in S. cerevisiae WAT11tfAX co-expressing IaAO1
T2 sequence (A0A976SHZ5 1-512): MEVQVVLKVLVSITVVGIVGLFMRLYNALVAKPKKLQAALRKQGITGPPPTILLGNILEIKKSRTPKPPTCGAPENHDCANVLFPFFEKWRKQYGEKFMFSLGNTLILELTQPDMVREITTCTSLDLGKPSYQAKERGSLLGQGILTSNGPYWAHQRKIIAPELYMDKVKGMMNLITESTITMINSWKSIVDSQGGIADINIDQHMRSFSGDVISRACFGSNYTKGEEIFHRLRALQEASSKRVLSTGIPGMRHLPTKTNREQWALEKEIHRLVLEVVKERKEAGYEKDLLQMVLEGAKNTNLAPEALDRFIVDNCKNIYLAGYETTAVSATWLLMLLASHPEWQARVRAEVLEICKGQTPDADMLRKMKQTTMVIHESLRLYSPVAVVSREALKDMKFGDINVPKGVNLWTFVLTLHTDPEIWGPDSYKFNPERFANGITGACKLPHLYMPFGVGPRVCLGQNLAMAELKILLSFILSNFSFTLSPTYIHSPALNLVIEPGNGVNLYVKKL

IaAO5 = target: T3, IaAO5 (Ilex asprella, UniProt A0A976SHZ3); test: yeast metabolite analysis by GC-MS; format: cell-based; conditions: S. cerevisiae WAT11tfA co-expressing IaAS2; C-24 oxidation to α-boswellic acid; not seen in strain WAT11tfAX
T3 construct: 515 aa ORF (1,545 bp); pESC-TRP in S. cerevisiae WAT11tfA co-expressing IaAS2
T3 sequence (A0A976SHZ3 1-514): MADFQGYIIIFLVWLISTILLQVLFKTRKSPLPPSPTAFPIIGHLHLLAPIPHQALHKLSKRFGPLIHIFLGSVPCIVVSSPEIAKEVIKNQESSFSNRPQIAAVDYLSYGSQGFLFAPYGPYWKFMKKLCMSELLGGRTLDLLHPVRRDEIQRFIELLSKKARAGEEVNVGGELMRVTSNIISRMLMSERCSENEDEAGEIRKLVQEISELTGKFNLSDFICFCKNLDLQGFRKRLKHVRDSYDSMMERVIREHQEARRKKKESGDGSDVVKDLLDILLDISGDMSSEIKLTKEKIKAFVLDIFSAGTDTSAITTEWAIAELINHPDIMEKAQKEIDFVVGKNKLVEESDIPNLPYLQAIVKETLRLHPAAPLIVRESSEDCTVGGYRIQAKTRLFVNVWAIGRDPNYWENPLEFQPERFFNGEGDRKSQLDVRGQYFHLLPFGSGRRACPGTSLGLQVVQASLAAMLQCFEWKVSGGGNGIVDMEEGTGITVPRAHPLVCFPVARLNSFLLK

Km (IaCPR): 7.69 µM
Compound: NC(=O)C1=CN([C@@H]2O[C@H](COP(=O)(O)OP(=O)(O)OC[C@H]3O[C@@H](n4cnc5c(N)ncnc54)[C@H](OP(=O)(O)O)[C@@H]3O)[C@@H](O)[C@H]2O)C=CC1 [NADPH]

Compound: CC1(C)CC[C@]2(C(=O)O)CC[C@]3(C)C(=CC[C@@H]4[C@@]5(C)CC[C@H](O)C(C)(C)[C@@H]5CC[C@]43C)[C@@H]2C1 [oleanolic acid]
yeast metabolite analysis by GC-MS (IaAO4; C-23 oxidation to hederagenin and gypsogenic acid): catalyzing the oxidation of both OA and UA at the C-23 position

Compound: CC1(C)CC[C@]2(C)CC[C@]3(C)C(=CC[C@@H]4[C@@]5(C)CC[C@H](O)C(C)(C)[C@@H]5CC[C@]43C)[C@@H]2C1 [β-amyrin]
yeast metabolite analysis by GC-MS (IaAO5): catalyzes oxidation at the C-24 position of β-amyrin to yield α-Boswellic acid

Compound: C[C@H]1[C@H](C)CC[C@]2(C(=O)O)CC[C@]3(C)C(=CC[C@@H]4[C@@]5(C)CC[C@H](O)C(C)(C)[C@@H]5CC[C@]43C)[C@H]12 [ursolic acid]
yeast metabolite analysis by GC-MS (IaAO4; C-23 oxidation, products 23-hydroxyl- and 23-carboxyl-ursolic acid tentative): catalyzing the oxidation of both OA and UA at the C-23 position
